From patent US20160235727A1, “NOVEL PYRROLIDINE DERIVED BETA 3 ADRENERGIC RECEPTOR AGONISTS” (Merck Sharp & Dohme Corp., priority 2013, published 2016)

Molecular target: T1, human β3-AR (Homo sapiens, UniProt P13945)
T1 construct: expressed in transfected cells; host or cells: CHO (Chinese hamster ovary) cells, stably transfected
Assay: cAMP functional agonist assay (LANCE TR-FRET) in CHO cells expressing cloned human β3-AR
Assay type: cell-based
Settings: for EC50: CHO cells stably expressing cloned human β3-adrenoceptor, cAMP release, read-out: Human β3-AR Agonism EC50; for Human β3-AR Agonist Activity (%): percent maximum activation relative to isoproterenol; for Fold drop in potency vs. 2-chloropyridine analog: EC50 of comparative example divided by EC50 of corresponding 2-chloropyridine compound

T1 sequence (P13945 whole entry): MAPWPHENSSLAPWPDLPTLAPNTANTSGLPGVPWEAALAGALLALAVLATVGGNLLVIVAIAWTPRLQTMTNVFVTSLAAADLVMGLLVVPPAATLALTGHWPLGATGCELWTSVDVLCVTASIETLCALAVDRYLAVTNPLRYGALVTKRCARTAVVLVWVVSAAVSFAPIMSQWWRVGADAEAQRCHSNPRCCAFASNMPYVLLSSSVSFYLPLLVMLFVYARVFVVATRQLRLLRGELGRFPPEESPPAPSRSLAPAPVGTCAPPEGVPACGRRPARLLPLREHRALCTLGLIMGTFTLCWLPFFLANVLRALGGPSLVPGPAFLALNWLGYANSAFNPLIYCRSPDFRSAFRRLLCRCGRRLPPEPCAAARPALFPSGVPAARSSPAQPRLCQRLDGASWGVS

Structure (SMILES)	EC50 [nM]	Human β3-AR Agonist Activity (%)	Fold drop in potency vs. 2-chloropyridine analog [fold]
CN(C(=O)c1ccc(C[C@@H]2CC[C@H]([C@H](O)c3ccc(Cl)nc3)N2)cc1)C1CCc2ncccc21 (stereo partly drawn) [Example 24-A, 4-(((2S,5R)-5-((R)-(6-chloropyridin-3-yl)(hydroxy)methyl)pyrrolidin-2-yl)methyl)-N-(6,7-dihydro-5H-cyclopenta[b]pyridin-5-yl)-N-methylbenzamide]	42	98	
CN(C(=O)c1ccc(C[C@@H]2CC[C@H]([C@H](O)c3ccccc3)N2)cc1)C1CCc2ncccc21 (stereo partly drawn) [Example 24-B, N-(6,7-dihydro-5H-cyclopenta[b]pyridin-5-yl)-4-(((2S,5R)-5-((R)-hydroxy(phenyl)methyl)pyrrolidin-2-yl)methyl)-N-methylbenzamide]	229	106	5.4
COc1ncccc1CN(C)C(=O)c1ccc(C[C@@H]2CC[C@H]([C@H](O)c3ccc(Cl)nc3)N2)cc1 [Example 25-A, 4-(((2S,5R)-5-((R)-(6-chloropyridin-3-yl)(hydroxy)methyl)pyrrolidin-2-yl)methyl)-N-((2-methoxypyridin-3-yl)methyl)-N-methylbenzamide]	18	98	
COc1ncccc1CN(C)C(=O)c1ccc(C[C@@H]2CC[C@H]([C@H](O)c3ccccc3)N2)cc1 [Example 25-B, 4-(((2S,5R)-5-((R)-hydroxy(phenyl)methyl)pyrrolidin-2-yl)methyl)-N-((2-methoxypyridin-3-yl)methyl)-N-methylbenzamide]	109	96	6.0
CN(Cc1cccnc1F)C(=O)c1ccc(C[C@@H]2CC[C@H]([C@H](O)c3cccnc3)N2)cc1 [Example 26-H, N-((2-fluoropyridin-3-yl)methyl)-4-(((2S,5R)-5-((R)-hydroxy(pyridin-3-yl)methyl)pyrrolidin-2-yl)methyl)-N-methylbenzamide]	397	96	11.3

Results, then the compound that gave them:

EC50 [nM]	Human β3-AR Agonist Activity (%)	Fold drop in potency vs. 2-chloropyridine analog [fold]	Structure (SMILES)
35	97		CN(Cc1cccnc1F)C(=O)c1ccc(C[C@@H]2CC[C@H]([C@H](O)c3ccc(Cl)nc3)N2)cc1 [Example 26-A, 4-(((2S,5R)-5-((R)-(6-chloropyridin-3-yl)(hydroxy)methyl)pyrrolidin-2-yl)methyl)-N-((2-fluoropyridin-3-yl)methyl)-N-methylbenzamide]
143	98	4.1	CN(Cc1cccnc1F)C(=O)c1ccc(C[C@@H]2CC[C@H]([C@H](O)c3cccc(F)c3)N2)cc1 [Example 26-C, 4-(((2S,5R)-5-((R)-(3-fluorophenyl)(hydroxy)methyl)pyrrolidin-2-yl)methyl)-N-((2-fluoropyridin-3-yl)methyl)-N-methylbenzamide]
136	93	3.9	CN(Cc1cccnc1F)C(=O)c1ccc(C[C@@H]2CC[C@H]([C@H](O)c3ccc(F)cc3)N2)cc1 [Example 26-F, 4-(((2S,5R)-5-((R)-(4-fluorophenyl)(hydroxy)methyl)pyrrolidin-2-yl)methyl)-N-((2-fluoropyridin-3-yl)methyl)-N-methylbenzamide]
5	57		O=C(c1ccc(C[C@@H]2CC[C@H]([C@H](O)c3ccc(Cl)nc3)N2)cc1)N(CCO)Cc1cccnc1F [Example 27-A, 4-(((2S,5R)-5-((R)-(6-chloropyridin-3-yl)(hydroxy)methyl)pyrrolidin-2-yl)methyl)-N-((2-fluoropyridin-3-yl)methyl)-N-(2-hydroxyethyl)benzamide]
